In patent publication US5444049A, “Peptide compounds derived from boronic acid” (Adir et Compagnie, priority 1993, dated 1995):
Where two headings read alike, the source gives them in different places.

Tests used:
[1] = tested on: thrombin time of human platelet-poor plasma; test: Anticoagulant activity: thrombin time in human plasma; assay type: biochemical; conditions: for Man CTT2 (concentration which multiplies the thrombin time by 2): human plasma, 2 minutes at 37° C.
Experimental: (§1) In the presence of a standard quantity of thrombin, a normal plasma coagulates in a defined and constant time, termed the thrombin time (TT). Any prolongation of this time reflects an abnormality of fibrin formation (coagulation).
(§2) Sprague-Dawley rats are anesthetized with pentobarbital sodium (60 mg/kg i.p.), the carotid artery is catheterized and blood samples are taken into trisodium citrate solution (0.109M). A platelet-poor plasma is obtained by centrifugation of the blood samples (3000 g, 15 minutes). Samples of venous blood are also taken from humans at the bend of the arm. Anticoagulation of the samples and preparation of platelet-poor plasma are identical to those carried out with rat blood.
(§3) The thrombin time is obtained with Prest thrombin reagent and determined automatically using a coagulometer.
(§4) The antagonist or the solvent (10 μl) is added to the plasma (90 μl) and then incubated for 2 minutes at 37° C. 100 µl of thrombin are added as the chronometer is started.
(§5) Under these conditions, the TT values obtained in the control plasma are of the order of 30 seconds in rats and 20 seconds in humans. The activity of an antagonist is evaluated by its capacity to prolong this thrombin time relative to the control.
(§6) Under these conditions, the compounds of the invention permit a prolongation of the thrombin time of 50-fold and more. The effect of the inhibitors is measured, and the concentration which multiplies the thrombin time by 2 (CTT2) is determined.

[2] = tested on: thrombin time of rat platelet-poor plasma; test: Anticoagulant activity: thrombin time in rat plasma; assay type: biochemical; conditions: for Rat CTT2 (concentration which multiplies the thrombin time by 2): rat plasma, 2 minutes at 37° C.
Experimental: as §1, §2, §3, §4, §5, §6

[3] = tested on: OFA rats; test: Anticoagulant activity ex vivo, oral administration (conscious rats), thrombin time; assay type: in vivo, rat; conditions: 10 mg/kg orally
Experimental: Fasted OFA rats are anesthetized with ether. The cordal artery is exposed and catheterized. The catheter is flushed with citrated (1/40) physiological solution. After installation of the catheter, the animal is placed in a restraining cage and 1.5 cm^3 of arterial blood are withdrawn into 0.109M citrate (1/9).
1 hour after the animal has awoken, the test products are administered orally at a single dose of 10 mg/kg.
Arterial blood samples (1.5 ml) are then withdrawn at 30 minutes, 60 minutes and 2 hours.
As each sample is withdrawn, 1.5 ml of physio-logical solution are reinjected into the animals.
The blood tubes are centrifuged for 15 minutes at 3000 g for preparation of the plasma. The time of onset of the coagulation phenomenon is measured after adding Prest thrombin.
The results are reproduced in the following table, and show the factors by which the thrombin time is increased.

[4] = tested on: OFA rats; test: Anticoagulant activity ex vivo, intravenous administration, activated cephalin time; assay type: in vivo, rat; conditions: 0.5 mg/kg i.v.
Experimental: OFA rats, fasted or otherwise, are anesthetized with pentobarbital (60 mg/kg i.p.). The carotid artery and the jugular vein are exposed and catheterized. The catheters are flushed with citrated (1/40) physiological solution. After installation of the catheters, a sample of 1.5 cm^3 of arterial blood is withdrawn into 0.109M citrate (1/9).
30 minutes later, the test product is administered i.v. in a volume of 1 ml.
Arterial blood samples (1.5 ml) are then withdrawn at 1 minute 30 sec and 5, 15, 30 and 60 minutes.
As each sample is withdrawn, 1.5 ml of citrated physiological solution are reinjected into the animal via the carotid.
The blood tubes are centrifuged for 15 minutes at 3000 g (preparation of plasma). 100 μl of plasma are incubated with 100 gl of activated cephalin. The time of onset of the coagulation phenomenon is measured after adding 100 μl of calcium.
The compounds of the invention, tested at a dose of 0.5 mg/kg, increase the activated cephalin time (ACT) in a dose-dependent manner. […] The increase in ACT noted with the compounds of the invention is still significant 60 minutes after their administration. The results are reproduced in the following table, and show the factors by which the coagulation time is increased.

[5] = tested on: OFA rats; test: as above; assay type: in vivo, rat; conditions: 0.5 mg/kg i.v., 15.5 min
[6] = target: T1, purified human plasmin (Homo sapiens, UniProt P00747); test: Inhibition of plasmin; assay type: biochemical; conditions: substrate S 2403
T1 construct: purified human plasmin (2 nM, Stago); purchased Stago
Experimental: (§7) To evaluate in vitro the selectivity of these products with respect to different serine proteases of fibrinolysis and of coagulation, the same protocol was applied to purified human plasmin (2 nM, Stago), to purified human activated protein C (2 nM, Stago), to purified human activated factor X (2 nM, Stago), to tissue plasminogen activator (2 nM, Calbiochem), to purified human urokinase (2 nM, Sigma) and to purified human plasma kallikrein (2 nM, Calbiochem), using different peptidyl para-nitroanilides as substrate: <Glu-Phe-Lys-pNA (0.50 mM, S 2403, Kabi) for plasmin, N-Cbo-Arg-Gly-Arg-pNA (0.38 mM, S 2765, Kabi) for factor Xa, <Glu-Pro-Arg-pNa (0.52 mM, S 2366, Kabi) for activated protein C, H-D-Pro-Phe-Arg-pNa (0.45 mM, S 2302, Kabi) for kallikrein, H-D-Ile-Pro-Arg-pNA (0.48 mM, S 2288, Kabi), <Glu-Gly-Arg-pNA (0.56 mM, S 2444, Kabi).
(§8) Inhibitors, enzymes and substrates are diluted in the same buffer ([…] buffer, pH 7.4, containing 0.12M sodium chloride and 0.05% of bovine serum albumin), and then distributed in a polystyrene microplate in a volume of […].
(§9) The fibrin formed by thrombin or by the para-nitroaniline liberated by the action of the serine protease is measured spectrophotometrically at 405 nm after 15 to 30 minutes of reaction at 20° C.

[7] = target: T2, tissue plasminogen activator (Homo sapiens, UniProt P00750); test: Inhibition of tissue plasminogen activator; assay type: biochemical; conditions: peptidyl para-nitroanilide substrate
T2 construct: purchased Calbiochem
Experimental: as §7, §8, §9

[8] = target: T3, purified human urokinase (Homo sapiens, UniProt P00749); test: Inhibition of urokinase; assay type: biochemical; conditions: peptidyl para-nitroanilide substrate
T3 construct: purchased Sigma
Experimental: as §7, §8, §9

[9] = target: T4, purified human activated protein C (Homo sapiens, UniProt P04070); test: Inhibition of activated protein C; assay type: biochemical; conditions: substrate S 2366
T4 construct: purchased Stago
Experimental: as §7, §8, §9

[10] = target: T5, human thrombin (Homo sapiens, UniProt P00734); test: Inhibition of human thrombin (fibrinogen or S2238 substrate); assay type: biochemical; conditions: for IC50: 20° C.; for selectivity with respect to the serine proteases of coagulation and of fibrinolysis compared with DUP 714: thrombin versus other serine proteases; for potency on human thrombin compared with DUP 714: with respect to human fibrinogen
T5 construct: human thrombin (Sigma, specific activity 3230 NIHU/mg); purchased Sigma
Experimental: To evaluate in vitro the inhibitory activity of the boro-arginine products with respect to human thrombin (Sigma, specific activity 3230 NIHU/mg), purified human fibrinogen ([…], Stago) (Fg) or the chromogenic substrate H-D-Phe-Pip-Arg-pNa ([…], S2238, Kabi) was added to a given quantity of thrombin (0.7 or 2 nM) incubated beforehand with or without the inhibitor under test (20° C., 10 minutes).
as §8, §9

[11] = target: T6, purified human plasma kallikrein (Homo sapiens, UniProt P03952); test: Inhibition of plasma kallikrein; assay type: biochemical; conditions: substrate S 2302; read-out: IC50 Kalli
T6 construct: to purified human plasma kallikrein (2 nM, Calbiochem); purchased Calbiochem
Experimental: as §7, §8, §9

[12] = tested on: dogs; test: Thrombopenia p.o. in dogs, platelet count; assay type: in vivo, dog
Experimental: (§10) The products were administered orally to dogs.2 hours and 4 hours after the treatment, and blood was withdrawn via the intravenous route. The plasma is prepared, platelets counted and the thrombin time test is carried out.

[13] = tested on: dogs; test: Anticoagulant activity p.o. in dogs, thrombin time; assay type: in vivo, dog
Experimental: as §10

[14] = target: T7, purified human activated factor X (Homo sapiens, UniProt P00742); test: Inhibition of activated factor X; assay type: biochemical; conditions: substrate S 2765
T7 construct: purchased Stago
Experimental: as §7, §8, §9

[15] = chromogenic substrate S2238, read-out: IC50 Thrombin S2238
[16] = substrate purified human fibrinogen, read-out: IC50 Thrombin Fg

T6 sequence (P03952 391-638 limits assumed): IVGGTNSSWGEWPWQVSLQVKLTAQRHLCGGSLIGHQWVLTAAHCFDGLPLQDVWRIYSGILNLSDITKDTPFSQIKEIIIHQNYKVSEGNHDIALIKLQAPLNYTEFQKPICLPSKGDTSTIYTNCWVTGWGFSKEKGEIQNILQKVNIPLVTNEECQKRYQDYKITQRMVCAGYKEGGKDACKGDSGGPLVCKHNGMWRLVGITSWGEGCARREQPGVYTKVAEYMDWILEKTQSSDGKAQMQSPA
T6 sequence (P03952 20-390 limits assumed): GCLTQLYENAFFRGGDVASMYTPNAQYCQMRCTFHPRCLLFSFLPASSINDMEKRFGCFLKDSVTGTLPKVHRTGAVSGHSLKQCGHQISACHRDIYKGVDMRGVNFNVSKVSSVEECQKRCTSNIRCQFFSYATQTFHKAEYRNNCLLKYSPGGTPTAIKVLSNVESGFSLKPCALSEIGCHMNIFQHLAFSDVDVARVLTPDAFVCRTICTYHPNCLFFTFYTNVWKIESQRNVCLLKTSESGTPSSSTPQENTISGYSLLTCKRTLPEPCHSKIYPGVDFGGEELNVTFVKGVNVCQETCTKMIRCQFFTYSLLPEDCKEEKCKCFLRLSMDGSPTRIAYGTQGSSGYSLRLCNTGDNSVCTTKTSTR
T2 sequence (P00750 36-562): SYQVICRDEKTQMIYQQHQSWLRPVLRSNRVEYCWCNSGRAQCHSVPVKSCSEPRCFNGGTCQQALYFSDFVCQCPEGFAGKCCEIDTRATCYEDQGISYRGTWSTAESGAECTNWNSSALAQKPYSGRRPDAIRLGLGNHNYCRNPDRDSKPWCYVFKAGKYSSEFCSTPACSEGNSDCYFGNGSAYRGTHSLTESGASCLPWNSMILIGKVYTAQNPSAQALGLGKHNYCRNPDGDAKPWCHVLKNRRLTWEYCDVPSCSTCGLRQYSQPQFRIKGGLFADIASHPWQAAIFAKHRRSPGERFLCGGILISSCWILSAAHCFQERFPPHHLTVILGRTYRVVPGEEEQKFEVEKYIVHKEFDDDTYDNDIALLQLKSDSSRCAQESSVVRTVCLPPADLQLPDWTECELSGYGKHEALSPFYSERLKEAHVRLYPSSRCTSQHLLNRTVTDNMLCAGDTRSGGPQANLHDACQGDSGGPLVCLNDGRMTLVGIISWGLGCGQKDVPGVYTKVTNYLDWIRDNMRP
T1 sequence (P00747 581-810 limits assumed): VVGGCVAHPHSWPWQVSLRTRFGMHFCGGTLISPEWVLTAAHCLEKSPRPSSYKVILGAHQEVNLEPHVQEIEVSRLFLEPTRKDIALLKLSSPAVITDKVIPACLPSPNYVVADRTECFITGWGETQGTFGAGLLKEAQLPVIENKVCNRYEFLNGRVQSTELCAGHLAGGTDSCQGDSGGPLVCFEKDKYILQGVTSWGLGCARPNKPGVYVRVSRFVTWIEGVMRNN
T1 sequence (P00747 97-580 limits assumed): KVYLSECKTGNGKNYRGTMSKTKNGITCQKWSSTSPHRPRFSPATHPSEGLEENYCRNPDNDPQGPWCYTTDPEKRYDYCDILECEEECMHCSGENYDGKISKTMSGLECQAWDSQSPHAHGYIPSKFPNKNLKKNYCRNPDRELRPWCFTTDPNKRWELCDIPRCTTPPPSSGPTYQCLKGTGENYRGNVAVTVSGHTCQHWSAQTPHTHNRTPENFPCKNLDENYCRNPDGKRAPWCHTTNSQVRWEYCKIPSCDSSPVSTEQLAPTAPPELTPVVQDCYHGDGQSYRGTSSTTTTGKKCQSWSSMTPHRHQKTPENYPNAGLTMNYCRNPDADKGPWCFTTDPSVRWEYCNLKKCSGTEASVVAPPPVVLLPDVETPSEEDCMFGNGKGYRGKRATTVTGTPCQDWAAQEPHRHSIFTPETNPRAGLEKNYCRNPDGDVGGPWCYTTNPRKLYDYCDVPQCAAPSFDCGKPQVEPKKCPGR
T7 sequence (P00742 235-488 limits assumed): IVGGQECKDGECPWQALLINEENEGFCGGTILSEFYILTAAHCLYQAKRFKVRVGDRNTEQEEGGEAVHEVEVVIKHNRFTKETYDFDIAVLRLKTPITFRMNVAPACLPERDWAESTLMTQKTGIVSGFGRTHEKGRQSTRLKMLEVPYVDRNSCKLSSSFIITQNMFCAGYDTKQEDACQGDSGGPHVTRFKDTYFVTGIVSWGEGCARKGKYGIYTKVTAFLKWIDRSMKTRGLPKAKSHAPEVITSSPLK
T7 sequence (P00742 41-179 limits assumed): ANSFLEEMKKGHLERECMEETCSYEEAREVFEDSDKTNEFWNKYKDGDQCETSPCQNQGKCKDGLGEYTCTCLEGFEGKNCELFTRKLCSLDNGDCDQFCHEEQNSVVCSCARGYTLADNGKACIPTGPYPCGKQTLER
T4 sequence (P04070 212-461 limits assumed): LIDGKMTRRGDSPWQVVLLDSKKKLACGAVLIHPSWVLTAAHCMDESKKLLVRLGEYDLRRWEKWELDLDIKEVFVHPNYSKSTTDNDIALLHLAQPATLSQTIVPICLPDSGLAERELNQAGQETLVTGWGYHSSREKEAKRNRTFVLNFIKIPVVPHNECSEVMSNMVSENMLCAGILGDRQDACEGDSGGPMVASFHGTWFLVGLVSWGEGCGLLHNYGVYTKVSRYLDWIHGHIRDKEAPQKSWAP
T4 sequence (P04070 43-197 limits assumed): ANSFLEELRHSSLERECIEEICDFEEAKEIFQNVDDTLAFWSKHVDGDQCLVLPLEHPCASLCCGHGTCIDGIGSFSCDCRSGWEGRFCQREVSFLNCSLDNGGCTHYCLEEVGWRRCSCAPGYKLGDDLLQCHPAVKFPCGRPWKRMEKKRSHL

SMILES	IC50 [6] [nM]	IC50 [7] [nM]	IC50 [8] [nM]	IC50 [9] [nM]	IC50 [10, 15] [nM]	IC50 [10, 16] [nM]	selectivity with respect to the serine proteases of coagulation and of fibrinolysis compared with DUP 714 [10]	IC50 [11] [nM]	Change in platelet count (% of control) ([12]; 5 mg/kg orally, 2 hr) [%]	IC50 [14] [nM]	Man CTT2 (concentration which multiplies the thrombin time by 2) [1] [µM]	Rat CTT2 (concentration which multiplies the thrombin time by 2) [2] [µM]	factor by which the thrombin time is increased ([3]; 0.5 hours)	factor by which the thrombin time is increased ([3]; 1 hour)	factor by which the thrombin time is increased ([3]; 2 hours)	factor by which the coagulation time (ACT) is increased ([4]; 5 min)	factor by which the coagulation time (ACT) is increased ([4]; 15 min)	factor by which the coagulation time (ACT) is increased ([4]; 30 min)	factor by which the coagulation time (ACT) is increased ([4]; 60 min)	factor by which the coagulation time (ACT) is increased [5]	also measured
CC(=O)NC(Cc1ccccc1)C(=O)N1C(C(=O)NC(CCCNC(=N)N)B(O)O)CC2CCCCC21.CC(=O)O (mixture of isomers) [Ex. 3, 1-(R)-[(Ac-(RS)Phe-Phi)amino]-4-guanidinobutylboronic acid acetate]	–	–	–	–	–	–	–	–	–	–	0.07	0.23	7.7	7.1	5.6	4.7	3.6	2.6	2.0	7.3	factor by which concentration for doubling the thrombin time is less than DUP 714 ([1]; humans): 2.5
CC(=O)NC(Cc1ccccc1)C(=O)N1C2CCC(CC2)C1C(=O)NC(CCCNC(=N)N)B(O)O.CC(=O)O (mixture of isomers) [Ex. 23, 1-(R)-[(Ac-(RS)Phe-Abo)amino]-4-guanidinobutylboronic acid acetate]	–	–	–	–	–	–	–	–	–	–	0.11	0.17	–	–	–	–	–	–	–	–	concentration for doubling the thrombin time relative to DUP 714 ([2]; rats): one half
CC(=O)N[C@H](Cc1ccccc1)C(=O)N1CCC[C@H]1C(=O)N[C@@H](CCCN=C(N)N)B(O)O [DUP 714, Ac-(D)Phe-Pro-Arg-boronic acid, reference compound]	28	8	24	17	–	–	–	8	–	41	0.18	0.32	4.0	3.7	3.9	3.4	2.0	1.7	1.4	7.6	thrombopenia ([12]; 2.5 mg/kg orally): marked thrombopenia; Change in platelet count (% of control) ([12]; 2.5 mg/kg orally, 2 hr): -32%; Change in platelet count (% of control) ([12]; 2.5 mg/kg orally, 4 hr): -16%; Increase factor TT ([13]; 2.5 mg/kg orally, 2 hr): 7; Increase factor TT ([13]; 2.5 mg/kg orally, 4 hr): 2

Second part, led by results:

IC50 [6] [nM]	IC50 [7] [nM]	IC50 [8] [nM]	IC50 [9] [nM]	IC50 [10, 15] [nM]	IC50 [10, 16] [nM]	selectivity with respect to the serine proteases of coagulation and of fibrinolysis compared with DUP 714 [10]	IC50 [11] [nM]	Change in platelet count (% of control) ([12]; 5 mg/kg orally, 2 hr) [%]	IC50 [14] [nM]	SMILES	Man CTT2 (concentration which multiplies the thrombin time by 2) [1] [µM]	Rat CTT2 (concentration which multiplies the thrombin time by 2) [2] [µM]	factor by which the thrombin time is increased ([3]; 0.5 hours)	factor by which the thrombin time is increased ([3]; 1 hour)	factor by which the thrombin time is increased ([3]; 2 hours)	factor by which the coagulation time (ACT) is increased ([4]; 5 min)	factor by which the coagulation time (ACT) is increased ([4]; 15 min)	factor by which the coagulation time (ACT) is increased ([4]; 30 min)	factor by which the coagulation time (ACT) is increased ([4]; 60 min)	factor by which the coagulation time (ACT) is increased [5]	also measured
735	38	3180	149	2.5	0.79	greater selectivity	104	-4	1760	CC(=O)NC(Cc1ccccc1)C(=O)N(CC(=O)N[C@@H](CCCNC(=N)N)B(O)O)C1CCCC1.CC(=O)O (mixture of isomers) [Ex. 27, 1-(R)-{[Ac-(RS)Phe-(N-cyclopentyl)Gly]amino}-4-guanidinobutylboronic acid acetate]	0.20	–	–	–	–	2.3	1.7	1.5	1.3	5	Change in platelet count (% of control) ([12]; 5 mg/kg orally, 4 hr): -1%; Increase factor TT ([13]; 5 mg/kg orally, 2 hr): 11; Increase factor TT ([13]; 5 mg/kg orally, 4 hr): 3
818	14	1640	211	2	0.45	greater selectivity	75	–	356	CC(=O)N[C@H](Cc1ccccc1)C(=O)N(CC(=O)N[C@@H](CCCNC(=N)N)B(O)O)C1CCC1.CC(=O)O [Ex. 25, 1-(R)-{[Ac-(R)Phe-(N-cyclobutyl)Gly]amino}-4-guanidinobutylboronic acid acetate]	–	–	–	–	–	–	–	–	–	–	potency on human thrombin compared with DUP 714 [10]: more potent inhibitors of human thrombin than the reference compound
445	47	1820	82	2	0.46	greater selectivity	91	-4	225	CC(=O)N[C@H](Cc1ccccc1)C(=O)N(CC(=O)N[C@@H](CCCN=C(N)N)B(O)O)C1CCCC1.CC(=O)O [Ex. 28, 1-(R)-{[Ac-(R)Phe-(N-cyclopentyl)Gly]amino}-4-guanidinobutylboronic acid acetate]	0.19	–	–	–	–	–	–	–	–	–	potency on human thrombin compared with DUP 714 [10]: more potent inhibitors of human thrombin than the reference compound; Change in platelet count (% of control) ([12]; 5 mg/kg orally, 4 hr): +1%; Increase factor TT ([13]; 5 mg/kg orally, 2 hr): 11; Increase factor TT ([13]; 5 mg/kg orally, 4 hr): 2
